Measurements reported in patent publication US3987189A, “Anti-inflammatory composition and method containing cyclic 2-furfural-acetals” (Henkel & Cie G.m.b.H., priority 1973, dated 1976).
Where two headings read alike, the source gives them in different places.

Legend:
[1] = Orienting toxicity test, LD 50; conditions: in vivo
Procedure: In the following experiments listed below the cyclic 2-furfural-acetals to be used according to the invention were tested for their anti-inflammatoryproperties. First an orienting experiment was carried out to determine their toxicity, in order to be able to determine the test dosages for the further experiments.

[2] = system: carrageenin induced edema of the rats paw; assay: Rat's paw test with carrageenin induced edema (amputation method); format: in vivo; conditions: 30 minutes before carrageenin, paws weighed 3 hours after carrageenin, read-out: Rat's paw test with carrageenin induced edema, checking (% inhibition)
Procedure: As a determination of the suitability of the compounds for preventing the inflammation caused by sunburn, a variation of the rats paw test was used, namely the so-called amputation method was used, which is described by C. H. Winter in the Journal of Pharmacology and Experimental Therapeutics 141, p.369 (1963). In the experiments, Carrageenin is used as the substance causing inflammation.
While only the Carrageenin solution was administered to the control animals, the test animals were given the different test substances by injection or by administration per os in the amount given in Table I below, 30 minutes before its injection with the Carrageenin solution. The test animals were killed 3 hours after the injection of the carrageenin solution causing the inflammation, and the weight of the paws was determined. The inhibiting of the development of the edema of the rats paws after the subplantar injection of the compound checking inflammation was used as an index of the degree of activity and was expressed in % inhibition.
On the basis of general practice, the results of the rats paw test serve as a base for the evaluation of a compound as a sunburn control agent.

[3] = UV-spectrum, absorption maxima; format: physicochemical
Source text: In addition, the absorption maxima of the test substances in the ultraviolet region are given in the following Table I. Since with some of the test substances the absorption maxima lie conveniently in the ultraviolet region producing erythema, which extends from 280 to 320 mμ these, besides their inflammation-preventing action as sunburn control substances, show themselves simultaneously as useful means for protection from the sun.

Structure (SMILES): Cc1ccc(C2OC(C)C(C)O2)o1 (centres unmarked) [Compound J, 2-(5'-methylfuryl-2')-4,5-dimethyl-1,3-dioxolane]
- LD50 [1]: 1000 mg/kg
- inhibition in vivo at 1000 mg/kg ([2]; po, 1000 mgm/kg p.o.): 48.4%
- UV-spectrum λ-max [3]: 300 mμ
- UV-spectrum logε at λ-max [3]: 1.96

Structure (SMILES): Cc1ccc(C2OCC(C)(C)C(C(C)C)O2)o1 (centres unmarked) [Compound H, 2-(5'-methylfuryl-2')-4-isopropyl-5,5-dimethyl-1,3-dioxane]
- LD50 [1]: 1000 mg/kg
- inhibition in vivo at 1000 mg/kg ([2]; po, 1000 mgm/kg p.o.): 50%
- UV-spectrum λ-max [3]: 300 mμ
- UV-spectrum logε at λ-max [3]: 2.08

Structure (SMILES): CC1OC(c2ccco2)OC1C (centres unmarked) [Compound G, 2-(furyl-2')-4,5-dimethyl-1,3-dioxolane]
- LD50 [1]: 300 mg/kg
- inhibition in vivo at 250 mg/kg ([2]; po, 250 mgm/kg p.o.): 14.5%
- UV-spectrum λ-max [3]: 300 mμ
- UV-spectrum logε at λ-max [3]: 2.13

Structure (SMILES): CCCCCCCCCCCCCCCCC1COC(c2ccc([N+](=O)[O-])o2)O1 (centres unmarked) [Compound O, 2-(5'-nitrofuryl-2')-4-hexadecyl-1,3-dioxolane]
- LD50 [1]: 2500 mg/kg
- inhibition in vivo at 250 mg/kg ([2]; ip, 250 mgm/kg i.p.): 29.6%

Structure (SMILES): O=[N+]([O-])c1ccc(C2OCCO2)o1 [Compound A, 2-(5'-Nitrofuryl-2')-1,3-dioxolane]
- LD50 [1]: 810 mg/kg
- inhibition in vivo at 500 mg/kg ([2]; po, 500 mgm/kg p.o.): 16.2%
- UV-spectrum λ-max [3]: 302 mμ
- UV-spectrum logε at λ-max [3]: 4.02

Structure (SMILES): O=[N+]([O-])c1ccc(C2OCCCCO2)o1 [Compound B, 2-(5'-nitrofuryl-2')-1,3-dioxepane]
- LD50 [1]: 1750 mg/kg
- inhibition in vivo at 500 mg/kg ([2]; po, 500 mgm/kg p.o.): 12.3%

Structure (SMILES): O=[N+]([O-])c1ccc(C2OC3CCCCC3O2)o1 (centres unmarked) [Compound E, 2-(5'-nitrofuryl-2')-4,5-tetramethylene-1,3-dioxolane]
- LD50 [1]: 1000 mg/kg
- inhibition in vivo at 500 mg/kg ([2]; po, 500 mgm/kg p.o.): 17.7%
- UV-spectrum λ-max [3]: 305 mμ
- UV-spectrum logε at λ-max [3]: 4.01

Structure (SMILES): CCCCCCCCC1COC(c2ccc([N+](=O)[O-])o2)O1 (centres unmarked) [Compound U, 2-(5'-nitrofuryl-2')-4-n-octyl-1,3-dioxolane]
- LD50 [1]: 5000 mg/kg
- inhibition in vivo at 250 mg/kg ([2]; ip, 250 mgm/kg i.p.): 17%

Structure (SMILES): CCCCCCCCCCCCCCC1COC(c2ccc([N+](=O)[O-])o2)O1 (centres unmarked) [Compound N, 2-(5'-nitrofuryl-2')-4-tetradecyl-1,3-dioxolane]
- LD50 [1]: 1000 mg/kg
- inhibition in vivo at 1000 mg/kg ([2]; ip, 1000 mgm/kg i.p.): 10.5%

Structure (SMILES): CCCCCCC1COC(c2ccc([N+](=O)[O-])o2)O1 (centres unmarked) [Compound T, 2-(5'-nitrofuryl-2')-4-n-hexyl-1,3-dioxolane]
- LD50 [1]: 1000 mg/kg
- inhibition in vivo at 1000 mg/kg ([2]; po, 1000 mgm/kg p.o.): 12.8%

Structure (SMILES): CC1CCOC(c2ccc([N+](=O)[O-])o2)O1 (centres unmarked) [Compound X, 2-(5'-nitrofuryl-2')-4-methyl-1,3-dioxane]
- LD50 [1]: 750 mg/kg
- inhibition in vivo at 500 mg/kg ([2]; po, 500 mgm/kg p.o.): 12.1%
- UV-spectrum λ-max [3]: 303 mμ
- UV-spectrum logε at λ-max [3]: 3.87

Structure (SMILES): CC1OC(c2ccc([N+](=O)[O-])o2)OC(C)C1C (centres unmarked) [Compound K, 2-(5'-Nitrofuryl-2')-4,5,6-trimethyl-1,3-dioxane]
- LD50 [1]: 690 mg/kg
- inhibition in vivo at 250 mg/kg ([2]; po, 250 mgm/kg p.o.): 30.8%
- UV-spectrum λ-max [3]: 303 mμ
- UV-spectrum logε at λ-max [3]: 3.76

Structure (SMILES): CCCCCCCCCCCCC1COC(c2ccc([N+](=O)[O-])o2)O1 (centres unmarked) [Compound M, 2-(5'-nitrofuryl-2')-4-dodecyl-1,3-dioxolane]
- LD50 [1]: 1000 mg/kg
- inhibition in vivo at 1000 mg/kg ([2]; ip, 1000 mgm/kg i.p.): 18.3%

Structure (SMILES): CCCC1(C)COC(c2ccc([N+](=O)[O-])o2)OC1 (centres unmarked) [Compound C, 2-(5'-nitrofuryl-2')-5-methyl-5-propyl-1,3-dioxane]
- LD50 [1]: 300 mg/kg
- inhibition in vivo at 250 mg/kg ([2]; po, 250 mgm/kg p.o.): 16.5%
- UV-spectrum λ-max [3]: 302 mμ
- UV-spectrum logε at λ-max [3]: 3.98

Structure (SMILES): CC(C)C1OC(c2ccc([N+](=O)[O-])o2)OCC1(C)C (centres unmarked) [Compound Q, 2-(5'-nitrofuryl-2')-4-isopropyl-5,5-dimethyl-1,3-dioxane]
- LD50 [1]: 1750 mg/kg
- inhibition in vivo at 750 mg/kg ([2]; po, 750 mgm/kg p.o.): 34.1%
- UV-spectrum λ-max [3]: 301 mμ
- UV-spectrum logε at λ-max [3]: 4.07

Structure (SMILES): O=[N+]([O-])c1ccc(C2OCCCO2)o1 [Compound W, 2-(5'-nitrofuryl-2')-1,3-dioxane]
- LD50 [1]: 750 mg/kg
- inhibition in vivo at 500 mg/kg ([2]; po, 500 mgm/kg p.o.): 16.9%
- UV-spectrum λ-max [3]: 303 mμ
- UV-spectrum logε at λ-max [3]: 3.79

Structure (SMILES): CCCCCCCCCCC1COC(c2ccc([N+](=O)[O-])o2)O1 (centres unmarked) [Compound V, 2-(5'-nitrofuryl-2')-4-n-decyl-1,3-dioxolane]
- LD50 [1]: 1000 mg/kg
- inhibition in vivo at 1000 mg/kg ([2]; po, 1000 mgm/kg p.o.): 18.3%

Structure (SMILES): CC1(C)OC(c2ccc([N+](=O)[O-])o2)OC1(C)C [Compound D, 2-(5'-nitrofuryl-2')-4,4,5,5-tetramethyl-1,3-dioxolane]
- LD50 [1]: 810 mg/kg
- inhibition in vivo at 500 mg/kg ([2]; po, 500 mgm/kg p.o.): 16.5%
- UV-spectrum λ-max [3]: 303 mμ
- UV-spectrum logε at λ-max [3]: 4.01

Structure (SMILES): CC1COC(c2ccc([N+](=O)[O-])o2)O1 (centres unmarked) [Compound R, 2-(5'-nitrofuryl-2')-4-methyl-1,3-dioxolane]
- LD50 [1]: 750 mg/kg
- inhibition in vivo at 50 mg/kg ([2]; ip, 50 mgm/kg i.p.): 36.6%
- UV-spectrum λ-max [3]: 303 mμ
- UV-spectrum logε at λ-max [3]: 3.84

Structure (SMILES): CCCCC1COC(c2ccc([N+](=O)[O-])o2)O1 (centres unmarked) [Compound S, 2-(5'-nitrofuryl-2')-4-n-butyl-1,3-dioxolane]
- LD50 [1]: 810 mg/kg
- inhibition in vivo at 500 mg/kg ([2]; ip, 500 mgm/kg i.p.): 10.6%

Structure (SMILES): CC(C)C1OC(c2ccco2)OCC1(C)C (centres unmarked) [Compound F, 2-(furyl-2')-4-isopropyl-5,5-dimethyl-1,3-dioxane]
- LD50 [1]: 300 mg/kg
- inhibition in vivo at 250 mg/kg ([2]; po, 250 mgm/kg p.o.): 48.4%
- UV-spectrum λ-max [3]: 300 mμ
- UV-spectrum logε at λ-max [3]: 2.35

Structure (SMILES): CC1CC(C)(C)OC(c2ccc([N+](=O)[O-])o2)O1 (centres unmarked) [Compound L, 2-(5'-nitrofuryl-2')-4,4,6-trimethyl-1,3-dioxane]
- LD50 [1]: 1130 mg/kg
- inhibition in vivo at 500 mg/kg ([2]; po, 500 mgm/kg p.o.): 21.9%
- UV-spectrum λ-max [3]: 304 mμ
- UV-spectrum logε at λ-max [3]: 4.01

Structure (SMILES): c1coc(C2OC3CCCCC3O2)c1 (centres unmarked) [Compound Y, 2-(Furyl-2')-4,5-tetramethylene-1,3-dioxolane]
- LD50 [1]: 300 mg/kg
- inhibition in vivo at 250 mg/kg ([2]; po, 250 mgm/kg p.o.): 32.3%
